Like-named read-outs stand apart in the source and are kept apart here. Values belong to the compound of their own block, whether it stands above or below them.
How the values were obtained:
Type in all cases: physicochemical
[1] = Hygroscopicity (dynamic vapor sorption classification)
Protocol: Approximately 10 mg of the sample was weighed at 25° C. under a 0% to 95% to 0% relative humidity (RH) cycle for testing the moisture absorption/desorption characteristics.

[2] = Solubility test of compound of formula I and its salts at 37° C.; settings: for solubility at 1 h / solubility at 24 h: thermodynamic from solid; for solubility at 1 h / solubility at 24 h / Solubility (mg/mL) (1 h) / Solubility (mg/mL) (24 h): calculated as free base; for solubility at 1 h: read-out: Solubility (mg/mL) (1 h); for solubility at 24 h: read-out: Solubility (mg/mL) (24 h); for solubility (in words): water, pH 7.4 at 37° C.
Protocol: The solubility of the compound of formula I and the L-tartrate, fumarate, and D-malate thereof was studied in water, SGF, FaSSIF, FeSSIF, and pH 7.4 at 37° C.
Experimental method: 30 mg (in water) or 15 mg of the sample was weighed into a 4 mL vial, then 3 mL of the medium to be tested was added thereto, and the resulting mixture was stirred continuously at 37° C. 0.5 mL of the sample was collected at 1 hour and 24 hours, respectively, and centrifuged at 12,000 rpm for 5 minutes. The supernatant was diluted to an appropriate multiple with 50% acetonitrile and its concentration was determined.
Therefore, 13 mg of the fumarate of the compound of formula I was weighed into a 25 mL volumetric flask (approximately 10 mg added to the 25 mL volumetric flask, calculated as free base), dissolved in 50% acetonitrile aqueous solution and diluted to the scale, and two samples were prepared in parallel. STD-1 was diluted to 200 μg/mL, 50 μg/mL, and 10 μg/mL with 50% acetonitrile aqueous solution. 5 μL of the sample was injected, and the standard curve was plotted.

[3] = Stability study on crystal form A (related substances by HPLC, crystal form by XRPD)
Protocol: Detection method of stability sample related substances: Approximately 5 mg of the sample was weighed, added with 5 mL of 20% methanol, ultrasonicated for a few seconds so that the compound can be completely dissolved, and 5 μL of the sample was injected for testing of related substances.

[4] = Stability test of mono-L-tartrate, fumarate and D-malate (related substances by HPLC); settings: for Purity (HPLC): in % (unit assumed); for chemical stability: after accelerated high humidity and high temperature testing
Protocol: The stability of the mono-L-tartrate, fumarate, and D-malate of the compound of formula I obtained in examples 1 to 3 was studied. […]
Detection of related substances: Approximately 5 mg of the sample was weighed into a 40 mL sample vial, dissolved in 10 mL of 50% acetonitrile aqueous solution and diluted to the scale, and 5 μL of the sample was injected.

[5] = pH 7.4 medium, aqueous buffer, pH 7.4, 37° C.
[6] = simulated gastric fluid, SGF, 37° C.

hygroscopicity [1]: highly hygroscopic
Final pH ([2]; FaSSIF, 37° C.): 6.38
Sample appearance ([2]; FaSSIF, 37° C.): Clarified solution
Final pH ([2]; FeSSIF, 37° C.): 4.99
Sample appearance ([2]; FeSSIF, 37° C.): Clarified solution
Final pH ([2]; SGF, 37° C.): 1.37
Sample appearance ([2]; SGF, 37° C.): Clarified solution
Final pH ([2]; Water, 37° C.): 7.32
Sample appearance ([2]; Water, 37° C.): Clarified solution
Final pH ([2]; pH 7.4, 37° C.): 7.56
Sample appearance ([2]; pH 7.4, 37° C.): Clarified solution
solubility at 1 h [2, 5]: 5.11 mg/mL
solubility at 24 h [2, 5]: 5.2 mg/mL
solubility at 1 h [2, 6]: 5.23 mg/mL
solubility at 24 h [2, 6]: 5.39 mg/mL
solubility at 1 h ([2]; FaSSIF, 37° C.): 5.1 mg/mL
solubility at 24 h ([2]; FaSSIF, 37° C.): 5.22 mg/mL
solubility at 1 h ([2]; FeSSIF, 37° C.): 5.46 mg/mL
solubility at 24 h ([2]; FeSSIF, 37° C.): 5.33 mg/mL
solubility at 1 h ([2]; Water, 37° C.): 10.6 mg/mL
solubility at 24 h ([2]; Water, 37° C.): 10.8 mg/mL
solubility (in words) ([2]; SGF, FaSSIF, FeSSIF): good solubility
SMILES: O=C(c1ccc(N[C@@H]2CCc3ncccc32)nc1)N1CCC2(CCOCC2)C1 [Compound of formula I]

Individual impurities % ([3]; 40° C./75% RH-closed-2 wks): 0.04%
Purity % ([3]; 40° C./75% RH-closed-2 wks): 99.92%
Total impurities % ([3]; 40° C./75% RH-closed-2 wks): 0.08%
Individual impurities % ([3]; 40° C./75% RH-open-2 wks): 0.06%
Purity % ([3]; 40° C./75% RH-open-2 wks): 99.89%
Total impurities % ([3]; 40° C./75% RH-open-2 wks): 0.11%
Individual impurities % ([3]; 60° C.-open-2 wks): 0.06%
Purity % ([3]; 60° C.-open-2 wks): 99.87%
Total impurities % ([3]; 60° C.-open-2 wks): 0.13%
Individual impurities % ([3]; 80% RH-open-2 wks): 0.05%
Purity % ([3]; 80% RH-open-2 wks): 99.90%
Total impurities % ([3]; 80% RH-open-2 wks): 0.10%
Individual impurities % ([3]; 92.5% RH-open-2 wks): 0.06%
Purity % ([3]; 92.5% RH-open-2 wks): 99.89%
Total impurities % ([3]; 92.5% RH-open-2 wks): 0.11%
Individual impurities % ([3]; Initial): 0.04%
Purity % ([3]; Initial): 99.92%
Total impurities % ([3]; Initial): 0.08%
change of crystal form ([3]; at 60° C. under high humidity conditions of 80% RH): has not changed
crystal form obtained after exposure ([3]; exposed to 92.5% RH for 3 days): crystal form B
stability (in words) ([3]; high temperature and high humidity conditions): good stability
SMILES: O=C(O)C(O)C(O)C(=O)O.O=C(c1cnc(NC2CCc3ncccc32)nc1)N1CCC2(CCOCC2)C1 (centres unmarked) [crystal form A]

Total impurities % ([4]; 40° C./75% RH-closed-2 wks): 0.30%
Purity (HPLC) ([4]; 40° C./75% RH-closed-2 wks): 99.70
Total impurities % ([4]; 40° C./75% RH-open-2 wks): 0.31%
Purity (HPLC) ([4]; 40° C./75% RH-open-2 wks): 99.69
Total impurities % ([4]; 60° C.-open-2 wks): 0.32%
Purity (HPLC) ([4]; 60° C.-open-2 wks): 99.68
Total impurities % ([4]; Initial): 0.31%
Purity (HPLC) ([4]; Initial): 99.69
chemical stability [4]: good chemical stability
Sample appearance ([2]; FaSSIF, 37° C.): Clarified solution
Solubility (mg/mL) (1 h) ([2]; FaSSIF, 37° C.): 5.44 mg/mL
Solubility (mg/mL) (24 h) ([2]; FaSSIF, 37° C.): 5.57 mg/mL
Sample appearance ([2]; FeSSIF, 37° C.): Clarified solution
Solubility (mg/mL) (1 h) ([2]; FeSSIF, 37° C.): 5.75 mg/mL
Solubility (mg/mL) (24 h) ([2]; FeSSIF, 37° C.): 5.63 mg/mL
Sample appearance ([2]; SGF, 37° C.): Clarified solution
Solubility (mg/mL) (1 h) ([2]; SGF, 37° C.): 5.37 mg/mL
Solubility (mg/mL) (24 h) ([2]; SGF, 37° C.): 5.46 mg/mL
Final pH ([2]; Water, 37° C.): 3.32
Sample appearance ([2]; Water, 37° C.): Clarified solution
Solubility (mg/mL) (1 h) ([2]; Water, 37° C.): 11.05 mg/mL
Solubility (mg/mL) (24 h) ([2]; Water, 37° C.): 11.37 mg/mL
Sample appearance ([2]; pH 7.4, 37° C.): Clarified solution
Solubility (mg/mL) (1 h) ([2]; pH 7.4, 37° C.): 5.65 mg/mL
Solubility (mg/mL) (24 h) ([2]; pH 7.4, 37° C.): 5.61 mg/mL
solubility (in words) ([2]; SGF, FaSSIF, FeSSIF): good solubility
SMILES: O=C(O)C=CC(=O)O.O=C(c1cnc(NC2CCc3ncccc32)nc1)N1CCC2(CCOCC2)C1 (centres unmarked) [Fumarate of compound of formula I]

Total impurities % ([4]; 40° C./75% RH-closed-20 d): 0.09%
Purity (HPLC) ([4]; 40° C./75% RH-closed-20 d): 99.91
Total impurities % ([4]; 40° C./75% RH-open-20 d): 0.10%
Purity (HPLC) ([4]; 40° C./75% RH-open-20 d): 99.90
Total impurities % ([4]; 60° C.-open-20 d): 0.18%
Purity (HPLC) ([4]; 60° C.-open-20 d): 99.82
Total impurities % ([4]; Initial): 0.11%
Purity (HPLC) ([4]; Initial): 99.89
chemical stability [4]: good chemical stability
Sample appearance ([2]; FaSSIF, 37° C.): Clarified solution
Solubility (mg/mL) (1 h) ([2]; FaSSIF, 37° C.): 5.26 mg/mL
Solubility (mg/mL) (24 h) ([2]; FaSSIF, 37° C.): 5.36 mg/mL
Sample appearance ([2]; FeSSIF, 37° C.): Clarified solution
Solubility (mg/mL) (1 h) ([2]; FeSSIF, 37° C.): 5.31 mg/mL
Solubility (mg/mL) (24 h) ([2]; FeSSIF, 37° C.): 5.28 mg/mL
Sample appearance ([2]; SGF, 37° C.): Clarified solution
Solubility (mg/mL) (1 h) ([2]; SGF, 37° C.): 5.36 mg/mL
Solubility (mg/mL) (24 h) ([2]; SGF, 37° C.): 5.37 mg/mL
Final pH ([2]; Water, 37° C.): 3.75
Sample appearance ([2]; Water, 37° C.): Clarified solution
Solubility (mg/mL) (1 h) ([2]; Water, 37° C.): 10.60 mg/mL
Solubility (mg/mL) (24 h) ([2]; Water, 37° C.): 10.76 mg/mL
Sample appearance ([2]; pH 7.4, 37° C.): Clarified solution
Solubility (mg/mL) (1 h) ([2]; pH 7.4, 37° C.): 5.54 mg/mL
Solubility (mg/mL) (24 h) ([2]; pH 7.4, 37° C.): 5.53 mg/mL
solubility (in words) ([2]; SGF, FaSSIF, FeSSIF): good solubility
SMILES: O=C(O)CC(O)C(=O)O.O=C(c1cnc(NC2CCc3ncccc32)nc1)N1CCC2(CCOCC2)C1 [D-malate of compound of formula I]

Total impurities % ([4]; 40° C./75% RH-closed-2 wks): 0.06%
Purity (HPLC) ([4]; 40° C./75% RH-closed-2 wks): 99.94
Total impurities % ([4]; 40° C./75% RH-open-2 wks): 0.10%
Purity (HPLC) ([4]; 40° C./75% RH-open-2 wks): 99.90
Total impurities % ([4]; 60° C.-open-2 wks): 0.08%
Purity (HPLC) ([4]; 60° C.-open-2 wks): 99.92
Total impurities % ([4]; Initial): 0.06%
Purity (HPLC) ([4]; Initial): 99.94
chemical stability [4]: good chemical stability
Final pH ([2]; FaSSIF, 37° C.): 3.84
Sample appearance ([2]; FaSSIF, 37° C.): Clarified solution
Sample appearance ([2]; FeSSIF, 37° C.): Clarified solution
Sample appearance ([2]; SGF, 37° C.): Clarified solution
Final pH ([2]; Water, 37° C.): 3.21
Sample appearance ([2]; Water, 37° C.): Clarified solution
Sample appearance ([2]; pH 7.4, 37° C.): Clarified solution
solubility at 1 h [2, 5]: 5.09 mg/mL
solubility at 24 h [2, 5]: 4.97 mg/mL
solubility at 1 h [2, 6]: 5.19 mg/mL
solubility at 24 h [2, 6]: 5.25 mg/mL
solubility at 1 h ([2]; FaSSIF, 37° C.): 5.08 mg/mL
solubility at 24 h ([2]; FaSSIF, 37° C.): 5.12 mg/mL
solubility at 1 h ([2]; FeSSIF, 37° C.): 5.12 mg/mL
solubility at 24 h ([2]; FeSSIF, 37° C.): 5.02 mg/mL
solubility at 1 h ([2]; Water, 37° C.): 10.3 mg/mL
solubility at 24 h ([2]; Water, 37° C.): 10.5 mg/mL
solubility (in words) ([2]; SGF, FaSSIF, FeSSIF): good solubility
SMILES: O=C(c1cnc(N[C@@H]2CCc3ncccc32)nc1)N1CCC2(CCOCC2)C1 [Mono-L-tartrate of compound of formula I]

Reference: patent US20250197414A1, “SALT FORM AND CRYSTAL FORM OF VANIN ENZYME INHIBITOR, METHOD FOR PREPARING SAME, AND USE THEREOF” (SHANGHAI MEIYUE BIOTECH DEVELOPMENT CO., LTD., priority 2022, published 2025)
